The subject of one assay is serotonine (5-HT) uptake. The experiment in a line: Activity to inhibit serotonine (5-HT) uptake. The settings on record: rat whole brain; 3H-5-HT 10 nM; 37° C.; pH 7.4; read-out: 5-HT uptake inhibitory activity (IC50 μM). The assay is classed as biochemical. On the procedure: (a) Activity to inhibit serotonine (5-HT) uptake
The experiment was performed in accordance with the method of Hyttel et al. [Psychopharmacology 60, 13, 1978]. The whole brain of a rat was homogenized in 40 volumes of ice-cooled 0.32M sucrose solution containing 10 μM pargyline and, then, centrifuged (600×G) for 10 minutes. The supernatant was centrifuged (2500×G) for 55 minutes to provide a pellet. This pellet was suspended in Krebs-Ringer-phosphate buffer (pH 7.4; 122 mM NaCl, 4.82 mM KCl, 0.972 mM CaCl2, 1.21 mM MgSO4, 12.7 mM Na2 HPO4, 2.97 mM NaH2 PO4, 0.162 mM EDTA sodium, 10 mM glucose, 1.14 mM ascorbic acid) saturated with a mixed gas (95% O and 5% CO2). To 900 μl of this suspention was added a solution of the test drug (10 μl) in DMSO and the mixture was incubated at 37° C. for 5 minutes. Then, 100 μl of ^3 H-5-HT (final concentration 10 nM) was added and the mixture was further incubated at 37° C. for 5 minutes. This reaction mixture was filtered under suction using a GF/B filter and the filter was washed with 4 ml of the above-mentioned buffer. The radioactivity on the filter was measured by the liquid scintillation method.
The amount of the drug which caused a 50% decrease in 5-HT uptake is shown as 50% inhibitory activity (IC50) in Table 42.

Assay [1] relates to 45Ca2+ uptake (veratrine-stimulated, rat cerebral cortex crude synaptosome fraction). Kind of assay: 45Ca2+ uptake inhibition experiment. The settings on record: 30 μM veratrine, 37° C., 10 minutes, read-out: 45Ca2+ uptake inhibitory activity (IC50 μM). The assay is classed as biochemical. On the procedure:
The rat cerebral cortex was homogenized in 10 volumes of ice-cooled 0.32M sucrose solution to prepare a crude synaptosome fraction (100×G, 10 min., 12000×G, 20 min.). […] To 900 μl of the homogenate was added a DMSO solution of the test drug (10 μl). The mixture was incubated at 37° C. for 10 minutes, followed by addition of 100 μl of a veratrine solution (containing 0.18 uci ^45 Ca^2+) at a final veratrine concentration of 30 μM. The mixture was incubated at 37° C. for 10 minutes, quenched with 4 ml of ice-cooled EGTA solution (120 mM sodium chloride, 5 mM potassium chloride, 5 mM EGTA, pH=7.5) and suction-filtered using a GF/B filter. The filter was washed twice with 4 ml each of a washing solution (132 mM sodium chloride, 5 mM potassium chloride, 1.3 mM magnesium chloride, 1.2 mM calcium, chloride, 20 mM Tris base, pH 7.5) and the radioactivity of […] was measured by the liquid scintillation method.
The ^45 Ca^2+ uptake inhibition rate was calculated by means of the following equation. [formula] A: The ^45 Ca^2+ uptake after 10 minutes' stimulation with 30 μM veratrine in the presence of the test drug
B: The ^45 Ca^2+ uptake in the absence of veratrine and in the presence of the test drug
C: The ^45 Ca^2+ uptake after 10 minutes' stimulation with 30 μM veratrine in the absence of the test drug
D: The ^45 Ca^2+ uptake in the absence of the test drug and in the absence of veratrine

Where a name gives a salt, the structure may show the parent alone.

A word on the IC50: it is the midpoint of a concentration-inhibition curve.

Turning to `c1ccc(N2CCN(CCC3(c4ccccc4)COCc4ccccc43)CC2)cc1` (stereo not drawn) [Example I-6, 4-[2-(4-Phenylpiperazin-1-yl)ethyl]-4-phenylisochroman dihydrochloride], the IC50 in the assay on serotonine (5-HT) uptake worked out at 1 µM; in assay [1], 0.32 µM.
For `c1ccc(C2(CCCN3CCCCCC3)COCc3ccccc32)cc1` (stereo not drawn) [Example I-15, 4-[3-(1-Hexamethyleneimino)propyl]-4-phenylisochroman hydrochloride], the IC50 in assay [1] worked out at 1.25 µM.
For `c1ccc(CNCCCC2(c3ccccc3)COCc3ccccc32)cc1` (stereo not drawn) [Example I-18, 4-[3-(Benzylamino)propyl]-4-phenylisochroman hydrochloride], the results for the IC50 (with serotonine (5-HT) uptake; in assay [1]) were 0.8 µM and 1.32 µM, respectively.
Consider `Fc1ccccc1CNCCCC1(c2ccccc2)COCc2ccccc21` (stereo not drawn) [Example I-19, 4-[3-(o-Fluorobenzylamino)propyl]-4-phenylisochroman hydrochloride], for which, in assay [1], the IC50 worked out at 1.05 µM.
Same read-out and setting: next, `Clc1ccccc1CNCCCC1(c2ccccc2)COCc2ccccc21` (stereo not drawn) [Example I-20, 4-[3-(o-Chlorobenzylamino)propyl]-4-phenylisochroman hydrochloride]: 0.94 µM; `c1ccc(C2(CCCNCc3ccccn3)COCc3ccccc32)cc1` (stereo not drawn) [Example I-23, 4-[3-(2-Picolylamino)propyl]-4-phenylisochroman dihydrochloride]: 0.5 µM.
Regarding `CN(CCCC1(c2ccccc2)CN=Cc2ccccc21)Cc1ccccc1` (stereo not drawn) [II-7, 4-[3-(N-Benzyl-N-methyl)aminopropyl]-3,4-dihydro-4-phenylisoquinoline dihydrochloride], the IC50 amounted to 0.88 µM with serotonine (5-HT) uptake and 0.46 µM in assay [1].
On the same counts, the results for `C1=NCC(CCCN2CCN(c3ccccc3)CC2)(c2ccccc2)c2ccccc21` (stereo not drawn) [II-8, 4-Phenyl-4-[3-(4-phenylpiperazin-1-yl)propyl]isoquinoline] are 0.41 µM and 1.84 µM.
On the same counts, the results for `Clc1ccc(C2(CCCN3CCN(c4ccccc4)CC3)CN=Cc3ccccc32)cc1` (stereo not drawn) [II-13, 4-(p-Chlorophenyl)-3,4-dihydro-4-[3-(4-phenylpiperazino)propyl]isoquinolinetrihydrochloride] are 0.14 µM and 1.29 µM.
On the same counts, the results for `CN(CCCC1(c2ccccc2)CNCc2ccccc21)Cc1ccccc1` (stereo not drawn) [III-7, 4-[3-(N-Benzyl-N-methyl)aminopropyl]-1,2,3,4-tetrahydro-4-phenylisoquinoline dihydrochloride] are 0.2 µM and 1.77 µM.
With `c1ccc(N2CCN(CCCC3(c4ccccc4)CNCc4ccccc43)CC2)cc1` (stereo not drawn) [III-8, 1,2,3,4-Tetrahydro-4-phenyl-4-[3-(4-phenylpiperazin-1-yl)propyl]isoquinoline trihydrochloride], the results for the concentration for half-maximal inhibition (IC50) (in the assay on serotonine (5-HT) uptake; in assay [1]) were 0.16 µM and 1.63 µM, respectively.
As for `Fc1ccc(N2CCN(CCCC3(c4ccccc4)CNCc4ccccc43)CC2)cc1` (stereo not drawn) [III-9, 4-{3-[4-(p-fluorophenyl)piperazin-1-yl]propyl}-1,2,3,4-tetrahydro-4-phenylisoquinoline dihydrochloride], the concentration for half-maximal inhibition (IC50) was 0.17 µM with serotonine (5-HT) uptake and 1.44 µM in assay [1].
For `CN1Cc2ccccc2C(CCCN2CCN(c3ccccc3)CC2)(c2ccccc2)C1` (stereo not drawn) [IV-7, 1,2,3,4-Tetrahydro-2-methyl-4-phenyl-4-[3-(4-phenylpiperazin-1-yl)propyl]isoquinoline trihydrochloride], the IC50 was determined as 0.18 µM in the assay with serotonine (5-HT) uptake and 1.71 µM in assay [1].
On the same counts, the results for `CN1Cc2ccccc2C(CCCN2CCC(c3ccccc3)CC2)(c2ccc(Cl)cc2)C1` (stereo not drawn) [IV-13, 4-(p-Chlorophenyl)-2-methyl-4-[3-(4-phenylpiperidino)propyl]-1,2,3,4-tetrahydroisoquinoline trihydrochloride] are 0.13 µM and 0.32 µM.

For the origin of these results see US5654296A, “Condensed heterocyclic compounds, their production and use” (priority 1994, dated 1997).
